Five compounds from paper PMC6073332 (2018) can be followed below.

Assay [1] relates to single strand I (-T7G8T9-) (DNA, single strand) CTCTCTTGTCTTCTC
The experiment in a line: HPLC-UV peak areas, two-step stoichiometric fit. As to conditions: none listed (50 mM triethylammonium acetate buffer only); 50 mM TEAA pH 7, 310 K, 24 h; covalent; site 1 of 2 (G8).

Assay [2] has as its system single strand II (complement of I) (DNA, single strand) GAGAAGACAAGAGAG
The assay can be described thus: HPLC-ESI-MS. The following applies: 50 mM TEAA pH 7, 310 K, 24 h; Ru/II 1.0 or 3.0; covalent.

In assay [3] the test system is duplex III (= I + II) (DNA, duplex) CTCTCTTGTCTTCTC/GAGAAGACAAGAGAG
The experiment in a line: CD. As to conditions: Na+ 100 mM (NaClO4) in incubation stock, 50 mM TEAA pH 7, 310 K, 24 h, diluted to 5 μM duplex, covalent.

Assay [4] concerns single strand V (-C7G8A9-) (DNA, single strand) CTCTCTCGACTTCTC
The assay can be described thus: HPLC-UV peak areas, two-step stoichiometric fit. As to conditions: none listed (50 mM triethylammonium acetate buffer only); 50 mM TEAA pH 7, 310 K, 24 h; covalent; site 1 of 2 (G8).

In assay [5] the test system is single strand VI (-A7G8C9-) (DNA, single strand) CTCTCTAGCCTTCTC
The assay can be described thus: HPLC-UV peak areas, two-step stoichiometric fit. The following applies: none listed (50 mM triethylammonium acetate buffer only); 50 mM TEAA pH 7, 310 K, 24 h; covalent; site 1 of 2 (G8).

For assay [6], the system named is single strand VIII (-A7G8T9-) (DNA, single strand) CTCTCTAGTCTTCTC
The experiment in a line: HPLC-UV peak areas, two-step stoichiometric fit. As to conditions: none listed (50 mM triethylammonium acetate buffer only); 50 mM TEAA pH 7, 310 K, 24 h; covalent; site 1 of 2 (G8).

In assay [7] the test system is single strand IX (-A7G8A9-) (DNA, single strand) CTCTCTAGACTTCTC
The experiment in a line: HPLC-UV peak areas, two-step stoichiometric fit. As to conditions: none listed (50 mM triethylammonium acetate buffer only); 50 mM TEAA pH 7, 310 K, 24 h; covalent; site 1 of 2 (G8).

Assay [8] has as its system single strand IV (-T7G8A9-) (DNA, single strand) CTCTCTTGACTTCTC
The experiment in a line: HPLC-UV peak areas, two-step stoichiometric fit. The following applies: none listed (50 mM triethylammonium acetate buffer only); 50 mM TEAA pH 7, 310 K, 24 h; covalent; site 1 of 2 (G8).

Assay [9] concerns single strand VII (-C7G8C9-) (DNA, single strand) CTCTCTCGCCTTCTC
The experiment in a line: HPLC-UV peak areas, two-step stoichiometric fit. As to conditions: none listed (50 mM triethylammonium acetate buffer only); 50 mM TEAA pH 7, 310 K, 24 h; covalent; site 1 of 2 (G8).

For assay [10], the system named is duplex III (= I + II) (DNA, duplex) CTCTCTTGTCTTCTC/GAGAAGACAAGAGAG
The experiment in a line: HPLC-ESI-MS (denaturing). As to conditions: Na+ 100 mM (NaClO4); 50 mM TEAA pH 7, 310 K, 48 h; Ru/III 1.0 or 6.0; covalent.

For the compound `NCCN.[Cl-].[Ru+2].c1ccc2c(c1)CCC2`, in assay [1], the K1 is 2.52 ± 0.13 × 10^4 M^−1. Besides, the binding result in assay [2] was “yes”.
For the compound `N.N.[Cl-].[Cl-].[Pt+2]`, the binding entry in assay [3] (Pt/III 6.0) is on record as “yes”.
Regarding `Cc1ccc(C(C)C)cc1.NCCN.[Cl-].[Ru+2]`, the binding result in assay [3] (Ru/III up to 6.0) and in [2] was “yes” each time. The K1 in assay [1] was 3.94 ± 0.24 × 10^4 M^−1.
With `NCCN.[Cl-].[Ru+2].c1ccc(-c2ccccc2)cc1`, the K1 is 2.81 ± 0.55 × 10^4 M^−1 in assay [4]; 3.33 ± 0.37 × 10^4 M^−1 in [5]; 2.92 ± 0.46 × 10^4 M^−1 in assay [1]; 5.74 ± 0.44 × 10^4 M^−1 in assay [6]; 3.61 ± 0.39 × 10^4 M^−1 in assay [7]; 3.99 ± 0.31 × 10^4 M^−1 in [8]. In addition, in assay [9], the K1 is reported as 4.75 ± 0.53 × 10^4 M^−1. Further, the binding entry in assay [2] and in assay [10] was “yes” throughout.
Consider `NCCN.[Cl-].[Ru+2].c1ccccc1`, for which the K1 in [1] is recorded as 0.79 ± 0.04 × 10^4 M^−1. In addition, the binding result in assay [2] and in [10] was “yes” each time.
